Laboratory results published in ChEMBL document CHEMBL3045273, “Synthesis, characterization, and pharmacological evaluation of 1-[2-(6-nitro-4-oxo-2-phenyl-4H-quinazolin-3-yl)-ethyl]-3-phenyl ureas” (2013).
≈ marks a conversion by molar mass, not a printed value.

Assays:
Bacillus subtilis [1] = test: Antibacterial activity against Bacillus subtilis ATCC 11774 assessed as initial concentration required for appearance of zone of inhibition after 24 hr; format: functional
Staphylococcus aureus [2] = test: Antibacterial activity against Staphylococcus aureus ATCC 25923 assessed as initial concentration required for appearance of zone of inhibition after 24 hr; format: functional
Pseudomonas aeruginosa [3] = test: Antibacterial activity against Pseudomonas aeruginosa ATCC 27853 assessed as initial concentration required for appearance of zone of inhibition after 24 hr; format: functional
Escherichia coli [4] = test: Antibacterial activity against Escherichia coli ATCC 25922 assessed as initial concentration required for appearance of zone of inhibition after 24 hr; format: functional
Bacillus subtilis [5] = test: Antibacterial activity against Bacillus subtilis ATCC 11774 assessed as growth inhibition after 24 hr by serial broth dilution method; format: functional; conditions: ATCC 11774, 24 h
Pseudomonas aeruginosa [6] = test: Antibacterial activity against Pseudomonas aeruginosa ATCC 27853 assessed as growth inhibition after 24 hr by serial broth dilution method; format: functional; conditions: ATCC 27853, 24 h
Staphylococcus aureus [7] = test: Antibacterial activity against Staphylococcus aureus ATCC 25923 assessed as growth inhibition after 24 hr by serial broth dilution method; format: functional; conditions: ATCC 25923, 24 h
Escherichia coli [8] = test: Antibacterial activity against Escherichia coli ATCC 25922 assessed as growth inhibition after 24 hr by serial broth dilution method; format: functional; conditions: ATCC 25922, 24 h
Candida albicans [9] = test: Antifungal activity against Candida albicans ATCC 66027 assessed as growth inhibition at 300 ug/ml after 24 hr by Kirby-Bauer disk diffusion method; format: functional; conditions: ATCC 66027, 24 h, read-out: DIZ
Bacillus subtilis [10] = test: Antibacterial activity against Bacillus subtilis ATCC 11774 assessed as growth inhibition at 300 ug/ml after 24 hr by Kirby-Bauer disk diffusion method; format: functional; conditions: ATCC 11774, 24 h, read-out: DIZ
Pseudomonas aeruginosa [11] = test: Antibacterial activity against Pseudomonas aeruginosa ATCC 27853 assessed as growth inhibition at 300 ug/ml after 24 hr by Kirby-Bauer disk diffusion method; format: functional; conditions: ATCC 27853, 24 h, read-out: DIZ
Staphylococcus aureus [12] = test: Antibacterial activity against Staphylococcus aureus ATCC 25923 assessed as growth inhibition at 300 ug/ml after 24 hr by Kirby-Bauer disk diffusion method; format: functional; conditions: ATCC 25923, 24 h, read-out: DIZ
Candida albicans [13] = test: Antifungal activity against Candida albicans ATCC 66027 assessed as growth inhibition at 100 ug/ml after 24 hr by Kirby-Bauer disk diffusion method; format: functional; conditions: ATCC 66027, 24 h, read-out: DIZ
Bacillus subtilis [14] = test: Antibacterial activity against Bacillus subtilis ATCC 11774 assessed as growth inhibition at 100 ug/ml after 24 hr by Kirby-Bauer disk diffusion method; format: functional; conditions: ATCC 11774, 24 h, read-out: DIZ
Pseudomonas aeruginosa [15] = test: Antibacterial activity against Pseudomonas aeruginosa ATCC 27853 assessed as growth inhibition at 100 ug/ml after 24 hr by Kirby-Bauer disk diffusion method; format: functional; conditions: ATCC 27853, 24 h, read-out: DIZ
Candida albicans [16] = test: Antifungal activity against Candida albicans ATCC 66027 assessed as initial concentration required for appearance of zone of inhibition after 24 hr; format: functional
Candida albicans [17] = test: Antifungal activity against Candida albicans ATCC 66027 assessed as growth inhibition after 24 hr by serial broth dilution method; format: functional; conditions: ATCC 66027, 24 h
Escherichia coli [18] = test: microbe, parasite or virus in culture; conditions: ATCC 25922, 24 h, read-out: DIZ
Escherichia coli [19] = test: microbe, parasite or virus in culture; conditions: ATCC 25922, 24 h, read-out: DIZ; remark: listed apart in the source
Staphylococcus aureus [20] = test: Antibacterial activity against Staphylococcus aureus ATCC 25923 assessed as growth inhibition at 100 ug/ml after 24 hr by Kirby-Bauer disk diffusion method; format: functional; conditions: ATCC 25923, 24 h, read-out: DIZ
Escherichia coli [21] = test: Antibacterial activity against Escherichia coli ATCC 25922 assessed as growth inhibition at 40 ug/ml after 24 hr by Kirby-Bauer disk diffusion method; format: functional; conditions: ATCC 25922, 24 h, read-out: DIZ

Row | SMILES | MIC (Bacillus subtilis [5]) [µg/mL] | MIC (Pseudomonas aeruginosa [6]) [µg/mL] | MIC (Staphylococcus aureus [7]) [µg/mL] | MIC (Escherichia coli [8]) [µg/mL] | MIC (Candida albicans [17]) [µg/mL] | Activity (Bacillus subtilis [1]) [µg/mL] | Activity (Staphylococcus aureus [2]) [µg/mL] | Activity (Pseudomonas aeruginosa [3]) [µg/mL] | Activity (Escherichia coli [4]) [µg/mL] | zone of inhibition at 300 µg/mL (Candida albicans [9]) [mm] | zone of inhibition at 300 µg/mL (Bacillus subtilis [10]) [mm] | zone of inhibition at 300 µg/mL (Pseudomonas aeruginosa [11]) [mm] | zone of inhibition at 300 µg/mL (Staphylococcus aureus [12]) [mm] | zone of inhibition at 100 µg/mL (Candida albicans [13]) [mm] | zone of inhibition at 100 µg/mL (Bacillus subtilis [14]) [mm] | zone of inhibition at 100 µg/mL (Pseudomonas aeruginosa [15]) [mm] | Activity (Candida albicans [16]) [µg/mL] | zone of inhibition at 300 µg/mL (Escherichia coli [18]) [mm] | zone of inhibition at 100 µg/mL (Escherichia coli [19]) [mm] | zone of inhibition at 100 µg/mL (Staphylococcus aureus [20]) [mm] | other results
1 | O=C(O)c1cn(C2CC2)c2cc(N3CCNCC3)c(F)cc2c1=O [CIPROFLOXACIN] | 5 (≈ 15.1 µM) | 10 (≈ 30.2 µM) | 5 (≈ 15.1 µM) | 15 (≈ 45.3 µM) |  | 5 | 10 | 10 | 20 |  |  |  |  |  |  |  |  |  |  |  | 
2 | O=C(NCCn1c(-c2ccccc2)nc2ccc([N+](=O)[O-])cc2c1=O)Nc1cc(C(F)(F)F)ccc1Cl | 100 (≈ 188 µM) | 70 (≈ 132 µM) | 200 (≈ 376 µM) | 70 (≈ 132 µM) | 20 (≈ 37.6 µM) | 100 | 300 | 70 | 70 | 20 | 14 | 19 | 12 | 14 | 11 | 12 | 40 | 18 | 11 |  | 
3 | Cc1ccccc1NC(=O)NCCn1c(-c2ccccc2)nc2ccc([N+](=O)[O-])cc2c1=O | 70 (≈ 158 µM) | 40 (≈ 90.2 µM) | 70 (≈ 158 µM) | 40 (≈ 90.2 µM) | 20 (≈ 45.1 µM) | 100 | 70 | 70 | 40 | 19 | 14 | 18 | 14 | 16 | 11 | 12 | 20 | 16 | 13 | 12 | zone of inhibition at 40 µg/mL (Escherichia coli [21]): 11 mm
4 | O=C(NCCn1c(-c2ccccc2)nc2ccc([N+](=O)[O-])cc2c1=O)Nc1ccccc1 | 100 (≈ 233 µM) | 40 (≈ 93.1 µM) | 100 (≈ 233 µM) | 70 (≈ 163 µM) | 20 (≈ 46.6 µM) | 100 | 200 | 200 | 100 | 20 | 15 | 14 | 14 | 17 | 11 |  | 20 | 16 | 11 |  | 

More lines, in order of falling MIC (Bacillus subtilis [5]), values ahead:

Row | MIC (Bacillus subtilis [5]) [µg/mL] | MIC (Pseudomonas aeruginosa [6]) [µg/mL] | MIC (Staphylococcus aureus [7]) [µg/mL] | MIC (Escherichia coli [8]) [µg/mL] | MIC (Candida albicans [17]) [µg/mL] | SMILES | Activity (Bacillus subtilis [1]) [µg/mL] | Activity (Staphylococcus aureus [2]) [µg/mL] | Activity (Pseudomonas aeruginosa [3]) [µg/mL] | Activity (Escherichia coli [4]) [µg/mL] | zone of inhibition at 300 µg/mL (Candida albicans [9]) [mm] | zone of inhibition at 300 µg/mL (Bacillus subtilis [10]) [mm] | zone of inhibition at 300 µg/mL (Pseudomonas aeruginosa [11]) [mm] | zone of inhibition at 300 µg/mL (Staphylococcus aureus [12]) [mm] | zone of inhibition at 100 µg/mL (Candida albicans [13]) [mm] | zone of inhibition at 100 µg/mL (Bacillus subtilis [14]) [mm] | zone of inhibition at 100 µg/mL (Pseudomonas aeruginosa [15]) [mm] | Activity (Candida albicans [16]) [µg/mL] | zone of inhibition at 300 µg/mL (Escherichia coli [18]) [mm] | zone of inhibition at 100 µg/mL (Escherichia coli [19]) [mm] | zone of inhibition at 100 µg/mL (Staphylococcus aureus [20]) [mm] | other results
5 | 70 (≈ 141 µM) | 40 (≈ 80.4 µM) | 70 (≈ 141 µM) | 70 (≈ 141 µM) | 40 (≈ 80.4 µM) | O=C(NCCn1c(-c2ccccc2)nc2ccc([N+](=O)[O-])cc2c1=O)Nc1ccc(C(F)(F)F)cc1 | 70 | 100 | 70 | 100 | 20 | 14 | 18 | 13 | 15 | 12 | 12 | 40 | 15 | 11 | 11 | 
6 | 40 (≈ 70.7 µM) | 40 (≈ 70.7 µM) | 200 (≈ 354 µM) | 100 (≈ 177 µM) | 20 (≈ 35.4 µM) | O=C(NCCn1c(-c2ccccc2)nc2ccc([N+](=O)[O-])cc2c1=O)Nc1cc(C(F)(F)F)cc(C(F)(F)F)c1 | 70 | 200 | 40 | 100 | 24 | 19 | 19 | 12 | 17 | 14 | 14 | 20 | 14 | 11 |  | 
